Reference: patent publication US11078202B2, “β-lactamase inhibitor and use thereof” (priority 2018, dated 2021)
Where a name gives a salt, the structure may show the parent alone.

Tests used:
Format in all cases: cell-based
[1] = system: Klebsiella pneumoniae XNWB 0001; test: MIC assay of test compounds combined with ceftazidime (8 μg/mL); conditions: ceftazidime 8 μg/mL fixed
How it was run: (§1)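 Frozen strains, thawed and passaged twice on TSA (35±2 °C, 20-24 h), supplied colonies standardised in saline to OD600 0.1-0.15. These suspensions, diluted 300× in 1.1×CAMHB, were exposed to graded compound with constant partner antibiotic; MICs were read after 16-20 h at 35±2 °C.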

[2] = system: Klebsiella pneumoniae XNWB 0004; test: as above; conditions: ceftazidime 8 μg/mL fixed
How it was run: as §1

[3] = system: Klebsiella pneumoniae XNWB 0005; test: as above; conditions: ceftazidime 8 μg/mL fixed
How it was run: as §1

[4] = system: Klebsiella pneumoniae XNWB 0002; test: as above; conditions: ceftazidime 8 μg/mL fixed
How it was run: as §1

[5] = system: Pseudomonas aeruginosa XNWB 0008; test: as above; conditions: ceftazidime 8 μg/mL fixed
How it was run: as §1

[6] = system: Klebsiella pneumoniae XNWB 0003; test: as above; conditions: ceftazidime 8 μg/mL fixed
How it was run: as §1

[7] = system: Klebsiella pneumoniae XNWB 0006; test: as above; conditions: ceftazidime 8 μg/mL fixed
How it was run: as §1

[8] = system: Acinetobacter baumannii XNWB 0007; test: as above; conditions: ceftazidime 8 μg/mL fixed
How it was run: as §1

[9] = system: Escherichia coli XNWB 0009; test: MIC assay of test compounds combined with ampicillin (8 μg/mL); conditions: ampicillin 8 μg/mL fixed
Experimental: (§2) The bacterial strains used for the minimum inhibitory concentration (MIC) test were frozen in a −80° C. ULT freezer and thawed 2 days before use. A small amount of frozen bacterial strains were scraped using a sterile inoculating loop, streaked onto a TSA solid culture dish for inoculation, and then cultured for 20-24 h at 35±2° C. in a normal atmospheric environment.
(§3) 5-10 colonies with similar morphology were picked from the culture dish using a sterile inoculating loop and then re-streaked onto a suitable solid culture dish. Then the dish was placed into a normal incubator for culture for 20-24 h at 35±2° C.
(§4) 5-10 single bacterial colonies were picked from the solid culture dish, resuspended in 500 μL of 0.9% NaCl, and adjusted to an OD600 of 0.1-0.15 with a spectrophotometer.
(§5) The bacteria were then diluted 300-fold with 1.1×CAMHB.
(§6) Test compounds of columns A-H: having a highest final test concentration of 64 μg/mL or 32 μg/mL, 2-fold diluted.
(§7) Dilution of test compounds: All test compounds were dissolved and diluted in dimethylsulfoxide (DMSO). 170 μL of 3.2 mg/mL (50*64 μg/mL) compound was transferred to wells (A1-H1) of column 1 of a dilution master plate and then 85 μL of DMSO was transferred to wells of other columns. Each compound was diluted 2-fold in sequence (i.e., 85 μL of compound was pipetted from column 1 into column 2 and mixed uniformly, 85 μL of compound was pipetted from column 2 into column 3 and mixed uniformly, then 85 μL of compound was pipetted from column 3 into column 4 and mixed uniformly, and so on until the dilution was done in column 11).
(§8) Preparation of an additive of ampicillin: Ampicillin was dissolved in ddH2O. 30 μL of 100 μg/mL (12.5×8 μg/mL) ampicillin was transferred to columns 1-11 of an additive plate, followed by the addition of 30 μL of ddH2O to column 12.
(§9) 2 μL of each compound in the dilution master plate of the test compounds was transferred to the corresponding well of the assay plates. In the mean time, 2 μL of 100% DMSO was transferred to the compound-free wells (GC and SC wells). (1) 8 μL of imipenem in the additive plate of imipenem was transferred to the corresponding wells of the assay plates; (2) 8 μL of ceftazidime in the additive plate of ceftazidime was transferred to the corresponding wells of the assay plates; (3) 8 μL of ampicillin in the additive plate of ampicillin was transferred to the corresponding wells of the assay plates.
(§10) 90 μL of corresponding bacterial inocula were added to wells (except for SC wells) of the assay plates.
(§11) After addition, the 6 assay plates were covered by sterile covers. The mixtures in the assay plates were centrifuged by a centrifuge at 1000 rpm for 30 s, and mixed uniformly by oscillating with a microplate oscillator at 800 rpm for 1 min, and then cultured in a common incubator for 16-20 h at 35±2° C.
(§12) The minimum inhibitory concentration of each compound was recorded by reference to guidelines from the Clinical and Laboratory Standards Institute.
(§13) The minimum inhibitory concentrations of the compounds of the present invention and antibiotics (imipenem, ceftazidime, and ampicillin) against 11 strains of bacteria were tested in this study by reference to the medium microdilution method as indicated by the Clinical and Laboratory Standards Institute. The effect of the test compounds in combination with imipenem, ceftazidime, and ampicillin was also tested. Compounds were diluted two-fold in 96-well plates from the highest detection concentration of 64 μg/mL. The test compounds were tested in combination with a fixed concentration of imipenem (4 μg/mL), ceftazidime (8 μg/mL), and ampicillin (8 μg/mL). The bacterial inocula in the assay plates were resuscitated from TSA and diluted in CAMHB, while growth controls (GC wells) and sterile controls (SC wells) were set up in the assay plates. […]

[10] = system: Escherichia coli XNWB 0010; test: as above; conditions: ampicillin 8 μg/mL fixed
Experimental: as §2, §3, §4, §5, §6, §7, §8, §9, §10, §11, §12, §13

[11] = system: Enterobacter aerogenes XNWB 0011; test: as above; conditions: ampicillin 8 μg/mL fixed
Experimental: as §2, §3, §4, §5, §6, §7, §8, §9, §10, §11, §12, §13

[12] = system: Klebsiella pneumoniae XNWB 0001; test: MIC assay of test compounds combined with imipenem (4 μg/mL); conditions: imipenem 4 μg/mL fixed
How it was run: as §1

[13] = system: Klebsiella pneumoniae XNWB 0004; test: as above; conditions: imipenem 4 μg/mL fixed
How it was run: as §1

[14] = system: Klebsiella pneumoniae XNWB 0005; test: as above; conditions: imipenem 4 μg/mL fixed
How it was run: as §1

[15] = system: Klebsiella pneumoniae XNWB 0002; test: as above; conditions: imipenem 4 μg/mL fixed
How it was run: as §1

[16] = system: Pseudomonas aeruginosa XNWB 0008; test: as above; conditions: imipenem 4 μg/mL fixed
How it was run: as §1

[17] = system: Klebsiella pneumoniae XNWB 0003; test: as above; conditions: imipenem 4 μg/mL fixed
How it was run: as §1

[18] = system: Klebsiella pneumoniae XNWB 0006; test: as above; conditions: imipenem 4 μg/mL fixed
How it was run: as §1

[19] = system: Acinetobacter baumannii XNWB 0007; test: as above; conditions: imipenem 4 μg/mL fixed
How it was run: as §1

Compound	The minimum concentration of test compounds combined with ceftazidime (8 μg/mL) for bacteriostasis [1]	The minimum concentration of test compounds combined with ceftazidime (8 μg/mL) for bacteriostasis [2]	The minimum concentration of test compounds combined with ceftazidime (8 μg/mL) for bacteriostasis [3]	The minimum concentration of test compounds combined with ceftazidime (8 μg/mL) for bacteriostasis [4]	The minimum concentration of test compounds combined with ceftazidime (8 μg/mL) for bacteriostasis [5]	The minimum concentration of test compounds combined with ceftazidime (8 μg/mL) for bacteriostasis [6]	The minimum concentration of test compounds combined with ceftazidime (8 μg/mL) for bacteriostasis [7]	The minimum concentration of test compounds combined with ceftazidime (8 μg/mL) for bacteriostasis [8]	The minimum concentration of test compounds combined with ampicillin (8 μg/mL) for bacteriostasis [9]	The minimum concentration of test compounds combined with ampicillin (8 μg/mL) for bacteriostasis [10]	The minimum concentration of test compounds combined with ampicillin (8 μg/mL) for bacteriostasis [11]	The minimum concentration of test compounds combined with imipenem (4 μg/mL) for bacteriostasis [12]	The minimum concentration of test compounds combined with imipenem (4 μg/mL) for bacteriostasis [13]	The minimum concentration of test compounds combined with imipenem (4 μg/mL) for bacteriostasis [14]	The minimum concentration of test compounds combined with imipenem (4 μg/mL) for bacteriostasis [15]	The minimum concentration of test compounds combined with imipenem (4 μg/mL) for bacteriostasis [16]	The minimum concentration of test compounds combined with imipenem (4 μg/mL) for bacteriostasis [17]	The minimum concentration of test compounds combined with imipenem (4 μg/mL) for bacteriostasis [18]	The minimum concentration of test compounds combined with imipenem (4 μg/mL) for bacteriostasis [19]
N=C(N)NCc1nnc([C@@H]2CC3(CC3)[C@@H]3CN2C(=O)N3OS(=O)(=O)O)o1 [Example 3, (1R,4S)-4-(5-(guanidinomethyl)-1,3,4-oxadiazol-2-yl)-6-oxo-5,7-diazaspiro[bicycle [3.2.1]octane-2,1′-cyclopropan]-7-yl sulfate]	B (B: 8-16 μg/mL)	B (B: 8-16 μg/mL)	B (B: 8-16 μg/mL)	A (A: <8 μg/mL)	C (C: 16-128 μg/mL)	B (B: 8-16 μg/mL)	A (A: <8 μg/mL)	C (C: 16-128 μg/mL)	A (A: <8 μg/mL)	B (B: 8-16 μg/mL)	C (C: 16-128 μg/mL)	B (B: 8-16 μg/mL)	A (A: <8 μg/mL)	A (A: <8 μg/mL)	A (A: <8 μg/mL)	C (C: 16-128 μg/mL)	A (A: <8 μg/mL)	A (A: <8 μg/mL)	C (C: 16-128 μg/mL)
NCCc1nnc([C@@H]2CC3(CC3)[C@@H]3CN2C(=O)N3OS(=O)(=O)O)o1 [Example 4, (1R,4S)-4-(5-(2-aminoethyl)-1,3,4-oxadiazol-2-yl)-6-oxo-5,7-diazaspiro[bicycle[3.2.1]octane-2,1′-cyclopropan]-7-yl sulfate]	A (A: <8 μg/mL)	A (A: <8 μg/mL)	A (A: <8 μg/mL)	A (A: <8 μg/mL)	C (C: 16-128 μg/mL)	A (A: <8 μg/mL)	A (A: <8 μg/mL)	C (C: 16-128 μg/mL)	A (A: <8 μg/mL)	A (A: <8 μg/mL)	B (B: 8-16 μg/mL)	A (A: <8 μg/mL)	A (A: <8 μg/mL)	A (A: <8 μg/mL)	A (A: <8 μg/mL)	A (A: <8 μg/mL)	A (A: <8 μg/mL)	A (A: <8 μg/mL)	B (B: 8-16 μg/mL)
N=C(N)NCC1(c2nnc([C@@H]3CC4(CC4)[C@@H]4CN3C(=O)N4OS(=O)(=O)O)o2)CC1 [Example 13, (1R,4S)-4-(5-(1-(guanidinomethyl)cyclopropyl)-1,3,4-oxadiazol-2-yl)-6-oxo-5,7-diazaspiro[bicyclo[3.2.1]octane-2,1′-cyclopropan]-7-yl sulfate]	A (A: <8 μg/mL)	B (B: 8-16 μg/mL)	A (A: <8 μg/mL)	A (A: <8 μg/mL)	B (B: 8-16 μg/mL)	A (A: <8 μg/mL)	A (A: <8 μg/mL)	B (B: 8-16 μg/mL)	A (A: <8 μg/mL)	A (A: <8 μg/mL)	A (A: <8 μg/mL)	A (A: <8 μg/mL)	A (A: <8 μg/mL)	A (A: <8 μg/mL)	A (A: <8 μg/mL)	A (A: <8 μg/mL)	A (A: <8 μg/mL)	A (A: <8 μg/mL)	C (C: 16-128 μg/mL)
